Earlier results as cited in PMC8538057, “Direct Delivery of ANA-TA9, a Peptide Capable of Aβ Hydrolysis, to the Brain by Intranasal Administration” (Pharmaceutics, 2021).

How the values were obtained:
Aβ42 = details: also three Aβ fragment peptides, particularly Aβ11–29; cited from earlier work
Text: Recently, we reported the proteolytic activity of the shorter synthetic peptides JAL-TA9 (YKGSGFRMI) and ANA-TA9 (SKGQAYRMI), derived from the Box A region of the Tob1 and ANA/BTG3 proteins. These peptides cleave Aβ42 and three Aβ fragment peptides, particularly Aβ11–29 originating from the central region, which is considered the core region of Aβ42 aggregation/oligomerization. We gave these peptides the general name Catalytide. Catalytides such as JAL-TA9 and ANA-TA9 are attractive candidate peptide drugs for a novel strategy for preventing and treating AD.

aged mice = details: i.n. administration; cited from earlier work
Text: (§1) Nasal drug administration has several advantages over oral or i.v. administration, which include noninvasiveness, self-administration, short onset of action, and higher bioavailability due to the avoidance of hepatic first-pass metabolism. Therefore, interest has grown in i.n. drug administration as a route for the application of drugs, particularly peptides, for systemic delivery. In addition to the above advantages, active pharmaceutical ingredients applied to the nasal cavity can undergo not only systemic absorption but, also, direct delivery to the brain [33, 34, 35, 36]. The brain up ...

[1] = tested on: normal and cognitively impaired rats; details: i.n. administration; cited from earlier work
Text: as §1

| Sequence | cleavage of Aβ42 (proteolytic activity) (Aβ42) | effect on anxiety (aged mice) | effect on memory function [1] |
| --- | --- | --- | --- |
| YKGSGFRMI [JAL-TA9, Catalytide (catalytic peptide) … derived from the Box A region of Tob1 protein, cleaves Aβ42] | cleave Aβ42 | – | – |
| NAPVSIPQ | – | decreases anxiety | improves memory function |
